For 49 compounds, EC50 results are on record in US20240131028A1, “CHEMOVACCINATION AGAINST PLASMODIUM INFECTION WITH SELECTIVE PLASMEPSIN X INHIBITORS” (Merck Sharp & Dohme LLC, priority 2021, published 2024).

For the first assay, the system named is ring stage parasites (Pf). Briefly: Parasite lactate dehydrogenase (LDH) growth assay (Parasite Assay, PfLDH Assay). It is filed as cell-based, P. falciparum. The following applies: Plasmodium falciparum, 72 h, Table 3; 72 hours growth, LDH readout; read-out: EC50. The procedure: The parasite stock was maintained at 4% haematocrit in RPMI-Hepes media buffered with sodium bicarbonate and supplemented with 5% heat inactivated human serum and 0.5% albumax. […] On the day of assay set up, a blood smear of the parasite culture was Giemsa stained and counted. The parasitemia was adjusted to 0.7% rings and the haematocrit was diluted to 2% in RPMI-Hepes media buffered with sodium bicarbonate and supplemented with 5% heat inactivated human serum and 0.5% albumax. 30 μl of diluted parasites are then added into 10 μl of media+compound in pre-prepared Greiner TC assay plates. Parasite assay plates were placed in gassed humidified boxes in single layer and allowed to incubate at 37° C. for 72 hours. After 72 hours growth, assay plates were sealed with parafilm and frozen flat, in single file at −80° C. overnight. On the following day, assay plates were allowed to thaw at room temperature for 4 hours to which an LDH assay was performed to measure parasite growth.
One may read the EC50 as the concentration at which the effect is half-maximal. In the case of `COCC[C@H]([C@H]1C[C@@H]1C(=O)N[C@@H]1C[C@@H](C(F)(F)F)Oc2ccccc21)N1C(=N)N[C@](C)(C(C)C)CC1=O` [Example 21B], the EC50 worked out at 1 nM.

Consider `COCC[C@H]([C@H]1C[C@@H]1C(=O)N[C@H]1CCOc2ccccc21)N1C(=N)N[C@](C)(C(C)C)CC1=O` [Example 22], for which the EC50 was 44 nM.

In the case of `COCC[C@H]([C@H]1C[C@@H]1C(=O)NC1CC(C)(C)Oc2ccccc21)N1C(=N)NC(C)(C)CC1=O` (stereo partly shown) [Example 23A], the EC50 came out at 16 nM.

For the compound `COCC[C@H]([C@H]1C[C@@H]1C(=O)N[C@H]1C[C@@H](C(F)(F)F)Oc2ccccc21)N1C(=N)NC(C)(C)CC1=O` [Example 24A], the EC50 turned out to be 3.4 nM.

As for `COCC[C@H]([C@H]1C[C@@H]1C(=O)N[C@@H]1C[C@@H](C(F)(F)F)Oc2ccccc21)N1C(=N)NC(C)(C)CC1=O` [Example 24B], the half-maximal effective concentration (EC50) is 2 nM.

For `COCC[C@@H]([C@H]1C[C@@H]1C(=O)N[C@H]1C[C@@H](C(F)(F)F)Oc2ccccc21)N1C(=N)NC(C)(C)CC1=O` [Example 24C], the EC50 worked out at 120 nM.

Regarding `CC1(C)CC(=O)N([C@H](c2cccnc2)[C@H]2C[C@@H]2C(=O)N[C@H]2CC(C)(C)Oc3ccccc32)C(=N)N1` [Example 26], the EC50 is 4.7 nM.

Consider `CC1(C)CC(=O)N([C@H](c2cccnc2)[C@H]2C[C@@H]2C(=O)N[C@@H]2c3ccccc3OC(C)(C)[C@H]2O)C(=N)N1` [Example 27], for which the EC50 came to 78 nM.

For the compound `CCC1(CC)CC(=O)N(C[C@H]2C(C)[C@@H]2C(=O)N[C@H]2C[C@@H](C(F)(F)F)Oc3ccccc32)C(=N)N1` (stereo partly shown) [Example 28A], the EC50 is 12 nM.

With `CCC1(CC)CC(=O)N(CC2C(C(=O)N[C@H]3C[C@@H](C(F)(F)F)Oc4ccccc43)C2(C)C)C(=N)N1` (stereo partly shown) [Example 31A], the EC50 was 215 nM.

For the compound `CCC1(CC)CC(=O)N(CC2C(C(=O)N[C@H]3C[C@H](C(F)(F)F)Oc4ccccc43)C2(C)C)C(=N)N1` (stereo partly shown) [Example 31B], the EC50 worked out at 213 nM.

In the case of `CC1(C)CC(=O)N([C@H](c2cccnc2)[C@H]2C[C@@H]2C(=O)N[C@H]2C[C@H](C(F)(F)F)Oc3ccccc32)C(=N)N1` [Example 32], the EC50 worked out at 1.8 nM.

As to `CCC1(CC)CC(=O)N(C[C@H]2C(C)[C@@H]2C(=O)N[C@@H]2c3ccccc3C[C@H]2O)C(=N)N1` (stereo partly shown) [Example 33], the half-maximal effective concentration (EC50) was found to be 76 nM.

For the compound `CCC1(CC)CC(=O)N(C[C@@H]2[C@@H](C(=O)N[C@H]3CC(C)(C)Oc4ccccc43)C2(C)C)C(=N)N1` [Example 34], the EC50 amounted to 286 nM.

For `COc1ccc([C@H]([C@H]2C[C@@H]2C(=O)N[C@H]2C[C@H](C(F)(F)F)Oc3ccccc32)N2C(=N)NC(C)(C)CC2=O)cn1` [Example 37], the EC50 is 1.2 nM.

In the case of `COc1ccc([C@H]([C@H]2C[C@@H]2C(=O)N[C@@H]2c3ccccc3OC(C)(C)[C@H]2O)N2C(=N)NC(C)(C)CC2=O)cn1` [Example 39], the EC50 came out at 10.1 nM.

In the case of `COc1cncc([C@H]([C@H]2C[C@@H]2C(=O)N[C@H]2CC(C)(C)Oc3ccccc32)N2C(=N)NC(C)(C)CC2=O)c1` [Example 40], the EC50 amounted to 3.1 nM.

In the case of `COc1cncc([C@H]([C@H]2C[C@@H]2C(=O)N[C@H]2C[C@H](C(F)(F)F)Oc3ccccc32)N2C(=N)NC(C)(C)CC2=O)c1` [Example 41], the EC50 stood at 1.1 nM.

For `COc1cncc([C@H]([C@H]2C[C@@H]2C(=O)N[C@@H]2c3ccccc3OC(C)(C)[C@H]2O)N2C(=N)NC(C)(C)CC2=O)c1` [Example 42], the EC50 was determined as 18.4 nM.

With `CC1(C)CC(=O)N([C@H](c2cccnc2)[C@@H]2[C@@H](C(=O)N[C@H]3C[C@H](C(F)(F)F)Oc4ccccc43)C2(C)C)C(=N)N1` [Example 43A], the EC50 amounted to 4 nM.

Take `CC1(C)CC(=O)N([C@@H](c2cccnc2)[C@@H]2[C@@H](C(=O)N[C@H]3C[C@H](C(F)(F)F)Oc4ccccc43)C2(C)C)C(=N)N1` [Example 43B]: the EC50 stood at 37 nM.

Turning to `CCC1(CC)CC(=O)N([C@@H](c2cccnc2)[C@@H]2[C@@H](C(=O)N[C@H]3C[C@H](C(F)(F)F)Oc4ccccc43)C2(C)C)C(=N)N1` [Example 44A], the EC50 came out at 8.3 nM.

Turning to `CCC1(CC)CC(=O)N([C@H](c2cccnc2)[C@@H]2[C@@H](C(=O)N[C@H]3C[C@H](C(F)(F)F)Oc4ccccc43)C2(C)C)C(=N)N1` [Example 44B], the EC50 stood at 0.9 nM.

Take `CC1(C)CC(=O)N([C@H](c2ccc(C#N)cc2)[C@H]2C[C@@H]2C(=O)N[C@H]2CC(C)(C)Oc3ccccc32)C(=N)N1` [Example 45A]: the EC50 was determined as 2.8 nM.

As to `CC1(C)CC(=O)N([C@@H](c2ccc(C#N)cc2)[C@H]2C[C@@H]2C(=O)N[C@H]2CC(C)(C)Oc3ccccc32)C(=N)N1` [Example 45B], the EC50 came out at 220 nM.

On to `CC1(C)CC(=O)N([C@H](c2ccc(C#N)cc2)[C@H]2C[C@@H]2C(=O)N[C@@H]2c3ccccc3OC(C)(C)[C@H]2O)C(=N)N1` [Example 46], for which the EC50 was determined as 2.5 nM.

With `CC1(C)CC(=O)N([C@@H](c2ccc(C#N)cc2)[C@H]2C[C@@H]2C(=O)N[C@H]2C[C@H](C(F)(F)F)Oc3ccccc32)C(=N)N1` [Example 47A], the EC50 is 155 nM.

With `CC1(C)CC(=O)N([C@H](c2ccc(C#N)cc2)[C@H]2C[C@@H]2C(=O)N[C@H]2C[C@H](C(F)(F)F)Oc3ccccc32)C(=N)N1` [Example 47B], the EC50 turned out to be 0.9 nM.

Consider `CCC1(CC)CC(=O)N([C@H](c2cccnc2)[C@@H]2[C@@H](C(=O)N[C@H]3CC(C)(C)Oc4ccccc43)C2(C)C)C(=N)N1` [Example 48A], for which the EC50 worked out at 2.7 nM.

As to `CCC1(CC)CC(=O)N([C@@H](c2cccnc2)[C@@H]2[C@@H](C(=O)N[C@H]3CC(C)(C)Oc4ccccc43)C2(C)C)C(=N)N1` [Example 48B], the EC50 amounted to 7.4 nM.

For the compound `CC1(C)CC(=O)N(C(c2cccnc2)[C@@H]2[C@@H](C(=O)N[C@H]3CC(C)(C)Oc4ccccc43)C2(C)C)C(=N)N1` (stereo partly shown) [Example 49A], the EC50 was found to be 20 nM.

As to `CC1(C)CC(=O)N([C@H](c2cccc(C#N)c2)[C@H]2C[C@@H]2C(=O)N[C@H]2CC(C)(C)Oc3ccccc32)C(=N)N1` [Example 50], the EC50 stood at 3 nM.

`CC1(C)CC(=O)N([C@H](c2cccc(C#N)c2)[C@H]2C[C@@H]2C(=O)N[C@@H]2c3ccccc3OC(C)(C)[C@H]2O)C(=N)N1` [Example 51]: the EC50 was 5.3 nM.

On to `CC1(C)CC(=O)N([C@H](c2cccc(C#N)c2)[C@H]2C[C@@H]2C(=O)N[C@H]2C[C@H](C(F)(F)F)Oc3ccccc32)C(=N)N1` [Example 52], for which the EC50 is 1 nM.

For the compound `CC1(C)CC(=O)N(C(c2cccc(C#N)c2)[C@H]2C[C@@H]2C(=O)NC2CC(C)(C)Oc3ccc(F)cc32)C(=N)N1` (stereo partly shown) [Example 53A], the EC50 is 3.1 nM.

As for `CCC1(CC)CC(=O)N([C@@H](c2cccnc2)[C@H]2C(C)[C@@H]2C(=O)N[C@H]2CC(C)(C)Oc3ccccc32)C(=N)N1` (stereo partly shown) [Example 56A], the EC50 was 65 nM.

`CCC1(CC)CC(=O)N([C@H](c2cccnc2)[C@H]2C(C)[C@@H]2C(=O)N[C@H]2CC(C)(C)Oc3ccccc32)C(=N)N1` (stereo partly shown) [Example 56B]: the EC50 was 0.7 nM.

With `CC1[C@H]([C@@H](c2cccnc2)N2C(=N)NC(C)(C)CC2=O)[C@H]1C(=O)N[C@H]1CC(C)(C)Oc2ccccc21` (stereo partly shown) [Example 57A], the EC50 was 3.2 nM.

On to `CC1[C@H](C(c2cccnc2)N2C(=N)NC(C)(C)CC2=O)[C@H]1C(=O)N[C@H]1CC(C)(C)Oc2ccccc21` (stereo partly shown) [Example 57B], for which the EC50 was 100 nM.

Turning to `CC1(C)CC(=O)N([C@@H](c2cncc(Cl)c2)[C@H]2C[C@@H]2C(=O)N[C@H]2CC(C)(C)Oc3ccccc32)C(=N)N1` [Example 58A], the EC50 came to 210 nM.

Take `CC1(C)CC(=O)N([C@H](c2cncc(Cl)c2)[C@H]2C[C@@H]2C(=O)N[C@H]2CC(C)(C)Oc3ccccc32)C(=N)N1` [Example 58B]: the EC50 turned out to be 1 nM.

As to `CC1(C)CC(=O)N([C@H](c2cncc(Cl)c2)[C@H]2C[C@@H]2C(=O)N[C@@H]2c3ccccc3OC(C)(C)[C@H]2O)C(=N)N1` [Example 59], the EC50 is 3.8 nM.

For `CC1(C)CC(=O)N([C@H](c2cncc(Cl)c2)[C@H]2C[C@@H]2C(=O)N[C@H]2C[C@H](C(F)(F)F)Oc3ccccc32)C(=N)N1` [Example 60A], the EC50 came out at 0.5 nM.

Turning to `CC1(C)CC(=O)N([C@@H](c2cncc(Cl)c2)[C@H]2C[C@@H]2C(=O)N[C@H]2C[C@H](C(F)(F)F)Oc3ccccc32)C(=N)N1` [Example 60B], the EC50 was 100 nM.

For the compound `CC[C@]1(C)CC(=O)N([C@H](CCOC)[C@H]2C[C@@H]2C(=O)N[C@@H]2c3ccccc3OC(C)(C)[C@H]2O)C(=N)N1` [Example 61], the EC50 was found to be 6.9 nM.

The assay is the same for the next values; noted with them: Table 3; 72 hours growth, LDH readout; read-out: EC50.
Consider `COCC[C@H]([C@H]1C[C@@H]1C(=O)NC1CC(C)(C)Oc2ccccc21)N1C(=N)NC(C)(C)CC1=O` (stereo partly shown) [Example 23B], for which the EC50 is 15 nM.

In the case of `CCC1(CC)CC(=O)N(C[C@H]2C(C)[C@@H]2C(=O)N[C@H]2C[C@@H](C(F)(F)F)Oc3ccccc32)C(=N)N1` (stereo partly shown) [Example 28B], the EC50 came out at 14 nM.

With `CC1(C)CC(=O)N(C(c2cccnc2)[C@@H]2[C@@H](C(=O)N[C@H]3CC(C)(C)Oc4ccccc43)C2(C)C)C(=N)N1` (stereo partly shown) [Example 49B], the EC50 was determined as 14 nM.

For the compound `CC1(C)CC(=O)N(C(c2cccc(C#N)c2)[C@H]2C[C@@H]2C(=O)NC2CC(C)(C)Oc3ccc(F)cc32)C(=N)N1` (stereo partly shown) [Example 53B], the half-maximal effective concentration (EC50) was 2.1 nM.
